Test results from patent publication US20100087534A1, “Use of a Photosensitizing Agent in the Treatment or Prevention of an Inflammation-Associated Disorder in the Gastrointestinal Tract of a Mammal” (priority 2005, published 2010).

Key:
iNOS = experiment: Expression index of iNOS mRNA in illuminated colon, quantitative real-time PCR; format: in vivo, BALB/c mice; details: high dose PDT: 50 J/cm^2, 60 mg δ-ALA; 74 h; unmanipulated mice index=1
Description: The third portion was used for measuring the expression of the molecules involved in immune and inflammatory phenomenons in the colonic mucosa (cytokines, chemokines). For RNA extraction this portion was conserved in RNA-later solution (Ambion Inc. Austin, USA) until processing. RNA was extracted from the tissues using a Rneasy Mini kit (Qiagen, Hombrechtikon, Switzerland). RNA samples were submitted to a second or third DNAse treatment in order to get rid of all traces of genomic DNA. Quality of the RNA samples was tested on agarose gels and absence of genomic DNA was tested by PCR using primers specific for a house keeping gene, glyceraldehydes-3-phosphate-dehydrogenase (GAPDH). […] Quantification of reverse transcripted messenger RNA for GAPDH, the inducible nitric oxide synthetase (iNOS), interferon-gamma (IFN-γ), interleukin-1 receptor antagonist (IL1-Ra), tumor necrosis factor alpha (TNF-α), interleukin 6 (IL-6), tumor growth factor beta (TGF-13) and interleukin10 (IL-10) was performed by quantitative real-time PCR in a BioRad Real-time PCR iCycler using specific pairs of primers and the green fluorescence dye SYBR—Green®. GAPDH was used to normalize quantifications within each individual sample (normalization of the number of mRNA copies for the gene of interest/1 million mRNA copies of the GAPDH gene of the investigated mouse). […]

TNF-α [1] = experiment: Expression index of TNF-α mRNA in illuminated colon, quantitative real-time PCR; format: in vivo, BALB/c mice
Description: The third portion was used for measuring the expression of the molecules involved in immune and inflammatory phenomenons in the colonic mucosa (cytokines, chemokines). For RNA extraction this portion was conserved in RNA-later solution (Ambion Inc. Austin, USA) until processing. RNA was extracted from the tissues using a Rneasy Mini kit (Qiagen, Hombrechtikon, Switzerland). RNA samples were submitted to a second or third DNAse treatment in order to get rid of all traces of genomic DNA. Quality of the RNA samples was tested on agarose gels and absence of genomic DNA was tested by PCR using primers specific for a house keeping gene, glyceraldehydes-3-phosphate-dehydrogenase (GAPDH). RNA preparations were then submitted to reverse transcription using the ThermoScript™ RT-PCR system (Invitrogen, Basel, Switzerland) using an Oligo-dT as primer. Quantification of reverse transcripted messenger RNA for GAPDH, the inducible nitric oxide synthetase (iNOS), interferon-gamma (IFN-γ), interleukin-1 receptor antagonist (IL1-Ra), tumor necrosis factor alpha (TNF-α), interleukin 6 (IL-6), tumor growth factor beta (TGF-13) and interleukin10 (IL-10) was performed by quantitative real-time PCR in a BioRad Real-time PCR iCycler using specific pairs of primers and the green fluorescence dye SYBR—Green®. GAPDH was used to normalize quantifications within each individual sample (normalization of the number of mRNA copies for the gene of interest/1 million mRNA copies of the GAPDH gene of the investigated mouse). Expression of each gene of interest was finally calculated as an expression index (normalized number of mRNA copies of each manipulated mice/normalized number of mRNA copies of the unmanipulated mice) and the results are given as mean values of the expression index (unmanipulated mean mice index=1). Furthermore one kidney and a part of the liver were collected for pathological analysis to exclude hepato- or nephrotoxicity.

TNF-α [2] = experiment: TNF-α expression index in colon of transfer colitis SCID mice (FIG. 2); format: in vivo
Experimental: FIG. 2 represents the expression indices of the proinflammatory markers IFN-γ and TNF-α in untransfered mice, disease control group and PDT group (15 mg/kg of δ-ALA, 10 J/cm^2).
Typically, the expression index of each pro-inflammatory marker of interest is calculated (normalized number of mRNA copies of each manipulated mice/normalized number of mRNA copies of the unmanipulated mice). The results are given as mean values of the expression index (unmanipulated mean mice index=1). […]
The third portion was used for measuring the expression of the molecules involved in immune and inflammatory phenomenons in the colonic mucosa (cytokines, chemokines). […] Quantification of reverse transcripted messenger RNA for GAPDH, the inducible nitric oxide synthetase (iNOS), interferon-gamma (IFN-γ), interleukin-1 receptor antagonist (IL1-Ra), tumor necrosis factor alpha (TNF-α), interleukin 6 (IL-6), tumor growth factor beta (TGF-13) and interleukin10 (IL-10) was performed by quantitative real-time PCR in a BioRad Real-time PCR iCycler using specific pairs of primers and the green fluorescence dye SYBR—Green®. GAPDH was used to normalize quantifications within each individual sample (normalization of the number of mRNA copies for the gene of interest/1 million mRNA copies of the GAPDH gene of the investigated mouse). […]

[3] = test system: SCID mice with TH1-mediated Crohn-like colitis after transfer of CD4+CD45RBhigh T-cells; experiment: Histological analysis of colon after low dose PDT in transfer colitis (Example 2); format: in vivo
Experimental: Evolution of colitis in SCID mice was monitored every week by colonoscopic investigation after induction. Mice with moderately inflamed colons [endoscopic index of colitis severity (EICS) index 4-8] or marked inflamed colons (EICS 9-13) were randomly assigned to either a <<low dose>> PDT group or no treatment group (disease control group). Unmanipulated age-matched SCID mice served as negative controls.
(§1) PDT was performed with a photosensitizing agent (δ-ALA) dose of 15 mg/kg, administered 3 hours before the illumination with the energy dose of 10 J/cm^2 per gastrointestinal tract tissue.
The illumination time was 100 s, the wavelength 635 nm.
Mice were monitored by colonoscopy at day 3 and weeks 1, 2, 3 and 4 post PDT treatment. In addition to parameters investigated in example 1, CD4 immunostaining and apoptosis detection were performed.

[4] = test system: CD4+ cells in the inflamed colonic mucosa; experiment: Annexin-V mediated detection of apoptosis in CD4+ cells of colonic mucosa; format: in vivo, SCID mice; details: time zero reference 1.8±0.2%
Experimental: as §1
For Annexin-V mediated detection of apoptosis mice were sacrificed 4 or 20 hours after low dose PDT later. Untreated inflamed mice were also sacrificed and were considered as the time zero reference. In order to extract cells from the colonic mucosa, treated portions of the colons, or equivalent portions in untreated mice, were collected, cut into small pieces and individually incubated for 20 minutes at room temperature under constant agitation in a PBS solution containing 5 mM EDTA. […] Cells were then analyzed through a FACscan flowcytometer (Becton Dickinson), once in the absence of propidium iodide (PI) and once in the presence of PI in order to identify population of viable cells. The percentage of Annexin-V^+ cells within the CD4^+ population was finally calculated based on a forward and side scatter gated population consisting of viable cells (>98% of PI negative cells) and containing the most percentage of CD4^+ cells (>80%).

In the case of `NCC(=O)CCC(=O)O` [δ-ALA, 5-aminolevulinic acid], the “expression index iNOS” value (iNOS) is reported as 27.78±10.47, the “expression index TNF-α” value (TNF-α [1]; high dose PDT: 50 J/cm^2, 60 mg δ-ALA, 74 h, unmanipulated mice index=1) is reported as 5.19±0.93 and the “expression index TNF α” value (TNF-α [1]; low dose PDT 15 mg/kg δ-ALA, 10 J/cm2) is reported as 1.16±0.21. The “expression index TNF α” value (TNF-α [1]; low dose PDT 5J/cm2, 15 mg/kg δ-ALA) was 4.49±2.86, the “expression index TNF-α after low dose PDT” value (TNF-α [2]; 15 mg/kg δ-ALA, 10 J/cm^2, versus disease control group (FIG. 2)) was “decreased significantly” and the “decrease of the expression of pro-inflammatory marker TNF-α” value (TNF-α [2]; 10 J/cm^2, 15 mg/kg δ-ALA, compared to "colonoscopy" mice, deduced from FIG. 2) was 63%. For the same molecule, the “histology of illuminated portion of colon” value ([3]; PDT-treated mice, illuminated portion) was “a normal mucosa with low cellular infiltration”, the “histological score of inflammation” value ([3]; marked inflamed mice, 3 days after PDT, DC mice 7.7±0.6, P=0.0250) was 4.6±0.8 and the “percentage of Annexin V+ cells in the CD4+/PI- population” value ([4]; 4 hours after low dose PDT, P=0.0043) was 3.0±0.3%. The “percentage of Annexin V+ cells in the CD4+/PI- population” value ([4]; 20 hours after low dose PDT, P=0.0012) was 4.6±0.5%.
